Data published in patent US11312727B1, “Macrocyclic flu endonuclease inhibitors” (Janssen BioPharma, Inc., priority 2018, dated 2022).

What was measured:
[1] = test system: Influenza strain A549 A/WSN/33 (H1N1); test: microbe, parasite or virus in culture; format: cell-based; conditions: Influenza A virus, A549, 20 h, A549 cells, influenza A/WSN/33 (H1N1), 20 hours incubation; read-out: A549_A(H1N1) EC50
[2] = in vitro; conditions: human, CC50, uninfected A549 cells, CellTiter-Glo

| Compound | EC50 [1] [nM] | CC50 [2] [nM] |
| --- | --- | --- |
| O=C1c2c(O)c(=O)ccn2N2CN1CC[C@@H]1C[C@@H]1COc1cccc3c1[C@H]2c1ccccc1SC3 (single isomer, unassigned) [Compound 144BA, (1*S,13*S,15*S)-7-hydroxy-17-oxa-24-thia-2,3,10-triazaheptacyclo[16.12.1.12,10.03,8.013,15.022,31.025,30]dotriaconta-4,18,20,22(31),25(30),26,28-heptaene-6,9-dione] | 72.9 | > 200 |
| O=C1c2c(O)c(=O)ccn2N2CN1CC[C@H]1C[C@H]1COc1cccc3c1C2c1ccccc1SC3 (single isomer, unassigned) [Compound 144BB, (1*S,13*R,15*R)-7-hydroxy-17-oxa-24-thia-2,3,10-triazaheptacyclo[16.12.1.12,10.03,8.013,15.022,31.025,30]dotriaconta-4,18,20,22(31),25(30),26,28-heptaene-6,9-dione] | 51.3 | > 4000 |
| O=C1c2c(O)c(=O)ccn2N2CN1C1(/C=C/COc3c(F)cccc3[C@H]2c2ccccc2)CCC1 (single isomer, unassigned) [Compound 145A, (18′*R,E)-4′-fluoro-12′-hydroxy-18′-phenyl-6′H,18′H-spiro[cyclobutane-1,9′-[10,17]methanobenzo[b]pyrido[1,2-f][1]oxa[5,6,9]triazacyclotridecine]-11′,13′-dione] | 3.1 | > 100 |
| O=C1c2c(O)c(=O)ccn2N2CN1C1(/C=C/COc3c(F)cccc3[C@@H]2c2ccccc2)CCC1 (single isomer, unassigned) [Compound 145B, (18′*S,E)-4′-fluoro-12′-hydroxy-18′-phenyl-6′H,18′H-spiro[cyclobutane-1,9′-[10,17]methanobenzo[b]pyrido[1,2-f][1]oxa[5,6,9]triazacyclotridecine]-11′,13′-dionene] | 310 | > 10000 |
| O=C1c2c(O)c(=O)ccn2N2CN1C1(/C=C/COc3cccc4c3[C@@H]2c2ccccc2SC4)CCC1 (single isomer, unassigned) [Compound 147A, (17a′*R,*E)-12′-hydroxy-2′,17a′-dihydro-6′H-spiro[cyclobutane-1,9′-[3,4](epiprop[1]en[1]yl[3]ylidene)[10,17]methanobenzo[6,7]thiepino[4,5-c]pyrido[1,2-f][1]oxa[5,6,9]triazacyclotridecine]-11′,13′-dione] | > 5000 | > 10000 |
| O=C1c2c(O)c(=O)ccn2N2CN1C1(/C=C/COc3cccc4c3[C@H]2c2ccccc2SC4)CCC1 (single isomer, unassigned) [Compound 147B, (17a′*S,*E)-12′-hydroxy-2′,17a′-dihydro-6′H-spiro[cyclobutane-1,9′-[3,4](epiprop[1]en[1]yl[3]ylidene)[10,17]methanobenzo[6,7]thiepino[4,5-c]pyrido[1,2-f][1]oxa[5,6,9]triazacyclotridecine]-11′,13′-dione] | 0.33 | > 100 |
| C[C@@H]1/C=C/COc2c(ccc(F)c2F)[C@@H](c2ccccc2)N2CN1C(=O)c1c(O)c(=O)ccn12 (single isomer, unassigned) [Compound 148AA, (9*R,18*R,*E)-3,4-difluoro-12-hydroxy-9-methyl-18-phenyl-6,9-dihydro-18H-10,17-methanobenzo[b]pyrido[1,2-f][1]oxa[5,6,9]triazacyclotridecine-11,13-dione] | 1.6 | > 50 |
| C[C@@H]1/C=C/COc2c(ccc(F)c2F)[C@H](c2ccccc2)N2CN1C(=O)c1c(O)c(=O)ccn12 (single isomer, unassigned) [Compound 148BA, (9*R,18*S,*E)-3,4-difluoro-12-hydroxy-9-methyl-18-phenyl-6,9-dihydro-18H-10,17-methanobenzo[b]pyrido[1,2-f][1]oxa[5,6,9]triazacyclotridecine-11,13-dione] | 2600 | > 10000 |
| COC[C@H]1/C=C/COc2ccccc2[C@@H](c2ccccc2)N2CN1C(=O)c1c(O)c(=O)ccn12 (single isomer, unassigned) [Compound 150A, (9*R,18*R,*E)-12-hydroxy-9-(methoxymethyl)-18-phenyl-6,9-dihydro-18H-10,17-methanobenzo[b]pyrido[1,2-f][1]oxa[5,6,9]triazacyclotridecine-11,13-dione] | 9 | > 100 |
| COC[C@@H]1/C=C/COc2ccccc2[C@H](c2ccccc2)N2CN1C(=O)c1c(O)c(=O)ccn12 (single isomer, unassigned) [Compound 150B, (9*S,18*S,*E)-12-hydroxy-9-(methoxymethyl)-18-phenyl-6,9-dihydro-18H-10,17-methanobenzo[b]pyrido[1,2-f][1]oxa[5,6,9]triazacyclotridecine-11,13-dione] | 3260 | > 10000 |
| O=C1c2c(O)c(=O)ccn2N2CN1CC/C=C\COc1ccc(F)c3c1[C@@H]2c1cccc(F)c1SC3 (single isomer, unassigned) [Compound 151A, (1*R,13*Z)-20,25-difluoro-7-hydroxy-16-oxa-23-thia-2,3,10-triazahexacyclo[15.12.1.12,10.03,8.021,30.024,29]hentriaconta-4,7,13,17,19,21(30),24(29),25,27-nonaene-6,9-dione] | > 50 | > 100 |
| O=C1c2c(O)c(=O)ccn2N2CN1CC/C=C\COc1ccc(F)c3c1[C@H]2c1cccc(F)c1SC3 (single isomer, unassigned) [Compound 151B, (1*S,13*Z)-20,25-difluoro-7-hydroxy-16-oxa-23-thia-2,3,10-triazahexacyclo[15.12.1.12,10.03,8.021,30.024,29]hentriaconta-4,7,13,17,19,21(30),24(29),25,27-nonaene-6,9-dione] | 4.4 | > 100 |
| O=C1c2c(O)c(=O)ccn2N2CN1[C@@H](C1CC1)/C=C/COc1c(ccc(F)c1F)[C@@H]2c1ccccc1 (single isomer, unassigned) [Compound 152AA, (9*S,18*S,*E)-9-cyclopropyl-3,4-difluoro-12-hydroxy-18-phenyl-6,9-dihydro-18H-10,17-methanobenzo[b]pyrido[1,2-f][1]oxa[5,6,9]triazacyclotridecine-11,13-dione] | > 50 | > 100 |
| O=C1c2c(O)c(=O)ccn2N2CN1[C@H](C1CC1)/C=C/COc1c(ccc(F)c1F)[C@@H]2c1ccccc1 (single isomer, unassigned) [Compound 152AB, (9*R,18*S,*E)-9-cyclopropyl-3,4-difluoro-12-hydroxy-18-phenyl-6,9-dihydro-18H-10,17-methanobenzo[b]pyrido[1,2-f][1]oxa[5,6,9]triazacyclotridecine-11,13-dione] | > 50 | > 100 |
| O=C1c2c(O)c(=O)ccn2N2CN1[C@@H](C1CC1)/C=C/COc1c(ccc(F)c1F)[C@H]2c1ccccc1 (single isomer, unassigned) [Compound 152BA, (9*S,18*R,*E)-9-cyclopropyl-3,4-difluoro-12-hydroxy-18-phenyl-6,9-dihydro-18H-10,17-methanobenzo[b]pyrido[1,2-f][1]oxa[5,6,9]triazacyclotridecine-11,13-dione] | 1.3 | > 200 |
| O=C1c2c(O)c(=O)ccn2N2CN1[C@H](C1CC1)/C=C/COc1c(ccc(F)c1F)[C@H]2c1ccccc1 (single isomer, unassigned) [Compound 152BB, (9*R,18*R,*E)-9-cyclopropyl-3,4-difluoro-12-hydroxy-18-phenyl-6,9-dihydro-18H-10,17-methanobenzo[b]pyrido[1,2-f][1]oxa[5,6,9]triazacyclotridecine-11,13-dione] | 1.8 | > 200 |
| COC[C@@H]1/C=C/COc2c(ccc(F)c2F)[C@H](c2ccccc2)N2CN1C(=O)c1c(O)c(=O)ccn12 (single isomer, unassigned) [Compound 153AA, (9*S,18*S,*E)-3,4-difluoro-12-hydroxy-9-(methoxymethyl)-18-phenyl-6,9-dihydro-18H-10,17-methanobenzo[b]pyrido[1,2-f][1]oxa[5,6,9]triazacyclotridecine-11,13-dione] | > 50 | > 100 |
| COC[C@H]1/C=C/COc2c(ccc(F)c2F)[C@H](c2ccccc2)N2CN1C(=O)c1c(O)c(=O)ccn12 (single isomer, unassigned) [Compound 153AB, (9*R,18*S,*E)-3,4-difluoro-12-hydroxy-9-(methoxymethyl)-18-phenyl-6,9-dihydro-18H-10,17-methanobenzo[b]pyrido[1,2-f][1]oxa[5,6,9]triazacyclotridecine-11,13-dione] | > 50 | > 100 |
| COC[C@@H]1/C=C/COc2c(ccc(F)c2F)[C@@H](c2ccccc2)N2CN1C(=O)c1c(O)c(=O)ccn12 (single isomer, unassigned) [Compound 153BA, (9*S,18*R,*E)-3,4-difluoro-12-hydroxy-9-(methoxymethyl)-18-phenyl-6,9-dihydro-18H-10,17-methanobenzo[b]pyrido[1,2-f][1]oxa[5,6,9]triazacyclotridecine-11,13-dione] | 4.2 | > 100 |
| COC[C@H]1/C=C/COc2c(ccc(F)c2F)[C@@H](c2ccccc2)N2CN1C(=O)c1c(O)c(=O)ccn12 (single isomer, unassigned) [Compound 153BB, (9*R,18*R,*E)-3,4-difluoro-12-hydroxy-9-(methoxymethyl)-18-phenyl-6,9-dihydro-18H-10,17-methanobenzo[b]pyrido[1,2-f][1]oxa[5,6,9]triazacyclotridecine-11,13-dione] | 2.6 | > 100 |
| CC[C@@H]1/C=C/COc2c(F)cccc2[C@@H](c2ccccn2)N2CN1C(=O)c1c(O)c(=O)ccn12 (single isomer, unassigned) [Compound 154AA, (9*R,18*S,*E)-9-ethyl-4-fluoro-12-hydroxy-18-(pyridin-2-yl)-6,9-dihydro-18H-10,17-methanobenzo[b]pyrido[1,2-f][1]oxa[5,6,9]triazacyclotridecine-11,13-dione] | > 50 | > 100 |
